Results on 17 molecules are retold here after US12378198B2, “Crystalline l-arginine salt of (R)-2-(7-(4-cyclopentyl-3-(trifluoromethyl)benzyloxy)-1,2,3,4-tetrahydrocyclo-penta [b]indol-3-yl)acetic acid(compound1) for use in SIPI receptor-associated disorders” (Arena Pharmaceuticals, Inc., priority 2015, dated 2025).

For series [1], the system named is collagen induced arthritis (CIA) model. Conditions: cited from earlier work.
For series [2], the system named is lymphocyte. The settings on record: rat; reflects total plasma concentration; read-out: calculated lymphocyte lowering IC50; cited from earlier work.
For series [3], the system named is experimental autoimmune encephalomyelitis (EAE) model. The settings on record: cited from earlier work.
A further series has as its target S1P2 (Homo sapiens, UniProt O95136). The settings on record: read-out: EC50 β-arrestin; cited from earlier work.
The test system of series [4] is lymphocyte. Conditions: mouse; reflects total plasma concentration; read-out: calculated lymphocyte lowering IC50; cited from earlier work.
The conditions of series [5]: rat; cited from earlier work.
The conditions of series [6]: human; cited from earlier work.
The test system of series [7] is lymphocyte. The settings on record: dog; reflects total plasma concentration; read-out: calculated lymphocyte lowering IC50; cited from earlier work.
Another series has as its target S1P3 (Homo sapiens, UniProt Q99500). Conditions: read-out: EC50 β-arrestin; cited from earlier work.
In series [8] the test system is lymphocyte. Conditions: monkey; reflects total plasma concentration; read-out: calculated lymphocyte lowering IC50; cited from earlier work.
The subject of another series is lymphocyte count. Kind of series: Phase 1b clinical trial, lymphocyte count lowering in blood. It is filed as in vivo, healthy volunteers. The protocol:
The L-arginine salt of Compound 1 was selected for clinical evaluation. A randomized, double-blind, placebo-controlled Phase 1b clinical trial was conducted to evaluate the safety, tolerability, pharmacodynamics, and pharmacokinetics of multiple-ascending doses of the L-arginine salt of Compound 1 in five different dosing cohorts. A total of 50 healthy volunteers received the L-arginine salt of Compound 1 and 10 healthy volunteers received placebo for 21 days.

Series [9] is described as follows: BET specific surface area, nitrogen adsorption. Type of series: physicochemical. The settings on record: N2 adsorption at 77.3 K, eleven point method, P/P0 about 0.05 to about 0.3, degassed at 25° C. for 960 minutes. An excerpt:
In addition to the techniques described herein, specific surface can also be used to characterize the free-plates of the present invention. Accordingly, the specific surface area values disclosed in the present invention have been obtained by means of a specific surface area analysis technique based on the BET (Brunauer, Emmett and Teller) theory, which is a well-accepted theory known in the art for the calculation of surface areas of solids by means of measuring their physical adsorption of gas molecules (see: Brunauer, S.; Emmett, P. H.; and Teller, E.; J. Am. Chem. Soc., 1938, 60, 309). In particular, the specific surface area values measured in the present invention have been calculated from the BET surface area plot obtained by measuring the quantity of nitrogen gas molecules adsorbed by a weighted amount of solid at different relative pressures (P/P0) within the range 0.05-0.3 (P/P0), at 77.3 K. The measurement of the adsorption of gas molecules was carried out by means of a Micromeritics™ TriStar II BET surface analyzer having the characteristics as set out below in Example 14. Namely, nitrogen gas was used for the adsorption measurement. The sample for each analysis was degassed at 25° C. for 960 minutes under vacuum (i.e., 100 mm/Hg). The determination of the adsorption of nitrogen was measured at 77.3 K at eleven relative pressures (P/P0) sufficiently dispersed within the range of about 0.05 to about 0.30 (i.e. eleven absolute pressures in the range of about 36 mm Hg to about 223 mm Hg relative to the saturated pressure at the time of measurement that ranged from about 738 mmHg to about 743 mmHg).
In general, the specific surface areas for Lots A1-A9 (plates) and H1-H6 (spherulites) were determined by physical adsorption of nitrogen gas on the surface of the sample from each lot using the well-established technique based on the Brunauer, Emmett, and Teller theory.
The BET surface areas for the samples were measured by Micromeritics Pharmaceutical Services using a Micromeritics™ TriStar II BET surface area analyzer (MicroActive for TriStar II Plus 2.02 Software™). The samples were degassed at 25° C. for 960 minutes under vacuum (i.e., 100 mm/Hg). The determination of the adsorption of N2 at 77.3 K was measured using a BET surface area eleven point method with relative pressures in the range of about 0.05 to about 0.3 (P/P0) for a weighed amount of each sample, see TABLE M1, TABLE M2, and TABLE N below. The analysis was performed per ISO9277.

The nature of series [10]: Dynamic moisture-sorption (DMS) analysis. Type of series: physicochemical. Conditions: DMS at 25° C. How it is done: A dynamic moisture-sorption (DMS) analysis was performed on representative Lot A2 (see, Example 3, TABLE A) of the L-arginine salt of Compound 1 having the plate morphology and representative Lot H2 (prepared in a similar manner as described in Example 8, Method 2 Steps G and H in WO2011/094008; and described in TABLE K, Example 8 herein) of the L-arginine salt of Compound 1 having the spherulite morphology. […] By comparison the L-arginine salt of Compound 1 (spherulite morphology) gained between 0.5% weight (adsorption cycle) and 0.7% weight (desorption cycle) at 90% RH and 25° C. […] DMS analysis was performed using a TA Instruments Q5000 SA (EQ2418). Instrument performance was verified in-house. Samples were added to a tared sample holder on the Q5000 SA balance. The sample was dried at 40° C. and then analyzed at 25° C. with an adsorption phase from 30% RH to 90% RH and a desorption phase from 90% RH to 10% RH.

As a reminder, the IC50 is the point on the concentration scale where inhibition reaches its midpoint. The term EC50 denotes the concentration giving half of the maximal effect.

Counter-ions that a name gives are not always drawn. Like-named read-outs stand apart in the source and are kept apart here.

S1P2, sequence (O95136 whole entry, species assumed): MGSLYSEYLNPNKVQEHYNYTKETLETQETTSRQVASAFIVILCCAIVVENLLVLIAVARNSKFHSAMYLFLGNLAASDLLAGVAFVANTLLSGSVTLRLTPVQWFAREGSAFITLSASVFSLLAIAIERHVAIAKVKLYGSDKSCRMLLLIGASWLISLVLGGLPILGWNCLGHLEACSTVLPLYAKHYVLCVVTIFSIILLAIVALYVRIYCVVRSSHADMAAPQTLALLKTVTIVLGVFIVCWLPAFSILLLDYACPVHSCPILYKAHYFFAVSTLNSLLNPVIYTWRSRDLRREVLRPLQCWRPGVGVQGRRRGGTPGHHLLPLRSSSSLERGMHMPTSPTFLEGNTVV
S1P3, sequence (Q99500 whole entry, species assumed): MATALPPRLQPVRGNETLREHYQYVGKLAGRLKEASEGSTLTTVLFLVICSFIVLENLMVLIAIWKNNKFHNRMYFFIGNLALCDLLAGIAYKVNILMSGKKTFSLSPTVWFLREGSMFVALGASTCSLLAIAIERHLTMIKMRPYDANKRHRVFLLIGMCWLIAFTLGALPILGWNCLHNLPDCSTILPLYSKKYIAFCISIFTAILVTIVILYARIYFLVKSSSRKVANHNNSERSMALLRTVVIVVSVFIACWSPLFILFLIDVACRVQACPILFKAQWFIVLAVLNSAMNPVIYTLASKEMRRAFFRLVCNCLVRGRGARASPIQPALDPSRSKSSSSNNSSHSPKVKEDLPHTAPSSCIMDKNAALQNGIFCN

Turning to `O=C(O)C[C@H]1CCc2c1[nH]c1ccc(OCc3ccc(C4CCCC4)c(C(F)(F)F)c3)cc21` [Compound 1, (R)-2-(7-(4-cyclopentyl-3-(trifluoromethyl)benzyloxy)-1,2,3,4-tetrahydrocyclopenta[b]indol-3-yl)acetic acid], the “histological parameters in knees and ankles” value in series [1] (CIA rats) was “Improvement in histological parameters in the knees and ankles”. In addition, in series [1] (prophylactic daily oral dose, day 17, similar to fingolimod or methotrexate), the ankle diameters entry is “significant reduction in ankle diameters”. Moreover, the half-inhibitory concentration (IC50) with lymphocyte [2] was 51 nM; in the series on lymphocyte [4] it was 101 nM; with lymphocyte [7], 58 nM; in the series with lymphocyte [8], 98 nM. The “EAE disease, therapeutic administration” value in series [3] (administered day 18 to day 37, all animals with severe disease at start, similar to fingolimod) is on record as “reverse the disease relative to vehicle”. For the same molecule, the “EAE disease onset and severity, prophylactic” value in [3] (prophylactic dosing, discontinued at day 25, relative to vehicle) was “prevented the onset and severity of disease relative to vehicle up to day 25”. The EC50 at S1P2 and at S1P3 was above 10000 nM in each case. Also, the protein bound in series [5] is on record as 98.0%; in [6], 97.8%.
As for `O=C(O)C[C@H]1CCc2c1[nH]c1ccc(OCc3ccc(C4CCCC4)c(C(F)(F)F)c3)cc21` [L-arginine salt of Compound 1, L-arginine salt of (R)-2-(7-(4-cyclopentyl-3-(trifluoromethyl)benzyloxy)-1,2,3,4-tetrahydrocyclo-penta[b]indol-3-yl)acetic acid], the “lymphocyte count, mean decrease from baseline” value in the series on lymphocyte count (multiple-ascending doses for 21 days, dose-dependent) is “up to 69%”. The “lymphocyte count recovery to baseline” value in the series on lymphocyte count (on average, after conclusion of dosing) is given as “within one week”.
For `O=C(O)C[C@H]1CCc2c1[nH]c1ccc(OCc3ccc(C4CCCC4)c(C(F)(F)F)c3)cc21` [Lot A1], in [9] (listed as A1), the “BET Surface Area” value was 0.7 m^2/g.
With `O=C(O)C[C@H]1CCc2c1[nH]c1ccc(OCc3ccc(C4CCCC4)c(C(F)(F)F)c3)cc21` [Lot A2], in [9] (listed as A2), the “BET Surface Area” value was found to be 0.7 m^2/g. Further, the hygroscopicity result in series [10] is on record as “non-hygroscopic”. Moreover, the “weight gain at 90% RH” value in series [10] (90% RH) worked out at 0.2 % weight.
Regarding `O=C(O)C[C@H]1CCc2c1[nH]c1ccc(OCc3ccc(C4CCCC4)c(C(F)(F)F)c3)cc21` [Lot A3], in series [9] (listed as A3), the “BET Surface Area” value is recorded as 1.5 m^2/g.
Take `O=C(O)C[C@H]1CCc2c1[nH]c1ccc(OCc3ccc(C4CCCC4)c(C(F)(F)F)c3)cc21` [Lot A4]: the “BET Surface Area” value in series [9] (listed as A4) was 1.0 m^2/g.
`O=C(O)C[C@H]1CCc2c1[nH]c1ccc(OCc3ccc(C4CCCC4)c(C(F)(F)F)c3)cc21` [Lot A5]: the “BET Surface Area” value in series [9] (listed as A5) is 0.8 m^2/g.
`O=C(O)C[C@H]1CCc2c1[nH]c1ccc(OCc3ccc(C4CCCC4)c(C(F)(F)F)c3)cc21` [Lot A6]: in series [9] (listed as A6), the “BET Surface Area” value is given as 2.4 m^2/g.
Take `O=C(O)C[C@H]1CCc2c1[nH]c1ccc(OCc3ccc(C4CCCC4)c(C(F)(F)F)c3)cc21` [Lot A7]: the “BET Surface Area” value in [9] (listed as A7) came out at 1.9 m^2/g.
In the case of `O=C(O)C[C@H]1CCc2c1[nH]c1ccc(OCc3ccc(C4CCCC4)c(C(F)(F)F)c3)cc21` [Lot A8], in series [9] (listed as A8), the “BET Surface Area” value worked out at 3.0 m^2/g.
`O=C(O)C[C@H]1CCc2c1[nH]c1ccc(OCc3ccc(C4CCCC4)c(C(F)(F)F)c3)cc21` [Lot A9]: the “BET Surface Area” value in series [9] (listed as A9) is 3.1 m^2/g.
Regarding `O=C(O)C[C@H]1CCc2c1[nH]c1ccc(OCc3ccc(C4CCCC4)c(C(F)(F)F)c3)cc21` [Lot H1], in [9] (listed as H1), the “BET Surface Area” value was found to be 10.0 m^2/g.
Turning to `O=C(O)C[C@H]1CCc2c1[nH]c1ccc(OCc3ccc(C4CCCC4)c(C(F)(F)F)c3)cc21` [Lot H2], the “BET Surface Area” value in [9] (listed as H2) came to 13.5 m^2/g. Also, the “weight gain at 90% RH (adsorption cycle)” value in series [10] (90% RH, adsorption cycle) was 0.5 % weight. In series [10] (90% RH, desorption cycle), the “weight gain at 90% RH (desorption cycle)” value is 0.7 % weight.
Consider `O=C(O)C[C@H]1CCc2c1[nH]c1ccc(OCc3ccc(C4CCCC4)c(C(F)(F)F)c3)cc21` [Lot H3], for which the “BET Surface Area” value in series [9] (listed as H3) worked out at 11.8 m^2/g.
`O=C(O)C[C@H]1CCc2c1[nH]c1ccc(OCc3ccc(C4CCCC4)c(C(F)(F)F)c3)cc21` [Lot H4]: the “BET Surface Area” value in [9] (listed as H4) amounted to 12.0 m^2/g.
Regarding `O=C(O)C[C@H]1CCc2c1[nH]c1ccc(OCc3ccc(C4CCCC4)c(C(F)(F)F)c3)cc21` [Lot H5], in series [9] (listed as H5), the “BET Surface Area” value was found to be 10.9 m^2/g.
For the molecule `O=C(O)C[C@H]1CCc2c1[nH]c1ccc(OCc3ccc(C4CCCC4)c(C(F)(F)F)c3)cc21` [Lot H6], the “BET Surface Area” value in series [9] (listed as H6) turned out to be 12.3 m^2/g.
